Read-outs that look alike come from different tables or passages of the source.
Columns and labels:
[1] = log P by HPLC on a reversed-phase column (C 18), EEC Directive 79/831 Annex V.A8; assay type: physicochemical; conditions: for LOGP_NEUTRAL: pH 7.8, 0.001 molar aqueous ammonium hydrogencarbonate/acetonitrile; for chromatographic logP: reversed-phase HPLC column (C 18)
Protocol: The log P values are measured according to EEC Directive 79/831 Annex V.A8 by HPLC (high-performance liquid chromatography) on a reversed-phase column (C 18). Temperature: 55° C. The LC-MS determination in the acidic range is effected at pH 2.7 using 0.1% aqueous formic acid and acetonitrile (contains 0.1% formic acid) as eluents, linear gradient from 10% acetonitrile to 95% acetonitrile. Called log P (HCOOH) in the table. LC-MS determination in the neutral range is effected at pH 7.8 with 0.001 molar aqueous ammonium hydrogencarbonate solution and acetonitrile as eluents; linear gradient from 10% acetonitrile to 95% acetonitrile. Called log P (neutral) in the table. Calibration is effected with unbranched alkan-2-ones (having 3 to 16 carbon atoms) with known log P values (log P values determined on the basis of the retention times by linear interpolation between two successive alkanone s).

Phaedon cochleariae = Phaedon cochleariae spray test (PHAECO); assay type: in vivo; conditions: application rate 500 g/ha; larvae; after 7 days
Protocol: Phaedon cochleariae—Spray Test (PHAECO)
Solvent: 78.0 parts by weight of acetone • • 1.5 parts by weight of dimethylformamide
Emulsifier: alkylaryl polyglycol ether
(§1) To produce an appropriate active ingredient formulation, 1 part by weight of active ingredient is dissolved using the stated parts by weight of solvent and made up with water containing an emulsifier concentration of 1000 ppm until the desired concentration is attained. To produce further test concentrations, the preparation is diluted with emulsifier-containing water.
Discs of Chinese cabbage leaves (Brassica pekinensis) are sprayed with an active ingredient formulation of the desired concentration and, after drying, populated with larvae of the mustard beetle (Phaedon cochleariae).
After 7 days, the efficacy in % is determined. 100% means that all the beetle larvae have been killed; 0% means that no beetle larvae have been killed.

Myzus persicae = Myzus persicae spray test (MYZUPE), Chinese cabbage leaf discs; assay type: in vivo; conditions: application rate 500 g/ha, after 6 days
Protocol: Myzus persicae—Spray Test (MYZUPE)
Solvent: 78 parts by weight of acetone • • 1.5 parts by weight of dimethylformamide
Emulsifier: alkylaryl poly glycol ether
as §1
Discs of Chinese cabbage leaves (Brassica pekinensis) infested by all stages of the green peach aphid (Myzus persicae) are sprayed with an active ingredient formulation of the desired concentration.
After 6 days, the efficacy in % is determined. 100% means that all the aphids have been killed; 0% means that none of the aphids have been killed.

[2] = acidic range, pH 2.7, 0.1% aqueous formic acid/acetonitrile, 55° C.
[3] = acidic range, pH 2.7, 0.1% aqueous formic acid/acetonitrile, 55° C., read-out: LOGP_HCOOH
[4] = neutral range, pH 7.8, read-out: log P (neutral)

Structure (SMILES) | LOGP_HCOOH [1, 2] | LOGP_NEUTRAL ([1]; neutral range, 55° C.) | efficacy (Phaedon cochleariae) | chromatographic logP [1, 3] | chromatographic logP [1, 4] | efficacy (Myzus persicae)
CSc1cc(Cl)ccc1-c1nc2nc(C(F)(F)F)ncc2o1 [Example I-1] | 3.86 | 3.77 | – | – | – | –
CSc1cc(C(F)(F)F)cnc1-c1nc2cc(C(F)(F)F)ncc2n1C [Example I-3, 3-methyl-2-[3-(methylsulphanyl)-5-(trifluoromethyl)pyridin-2-yl]-6-(trifluoro-methyl)-3H-imidazo[4,5-c]pyridine] | – | 3.16 | 100% | 3.22 | 3.16 | –
CSc1cc(C(F)(F)F)ccc1-c1nc2cc(C(F)(F)F)ncc2n1C [Example I-5] | 3.30 | 3.26 | 100% | – | – | –
CSc1cc(Cl)ccc1-c1nc2nc(C(F)(F)F)ncc2n1C [Example I-6] | 2.75 | 2.74 | – | – | – | –
CCS(=O)(=O)CCS(=O)(=O)c1cc(C(F)(F)F)cnc1-c1nc2cc(C(F)(F)F)ncc2n1C [Example I-7] | 2.72 | 2.67 | – | – | – | –
CC(C)[S+]([O-])c1cc(C(F)(F)F)cnc1-c1nc2cc(C(F)(F)F)ncc2n1C (stereo not drawn) [Example I-8] | 3.54 | 3.46 | – | – | – | –
CCSc1ccccc1-c1nc2nc(C(F)(F)F)ncc2o1 [Example I-9] | 3.66 | 3.64 | – | – | – | –
CCS(=O)(=O)c1cccnc1-c1nc2cc(C(F)(F)F)ncc2n1C [Example I-15] | 1.95 | 1.92 | – | – | – | –
CC(C)S(=O)(=O)c1cc(C(F)(F)F)cnc1-c1nc2cc(C(F)(F)F)ncc2n1C [Example I-16] | 3.26 | 3.21 | – | – | – | –
Cn1c(-c2ccc(F)cc2S(C)(=O)=O)nc2cc(C(F)(F)F)ncc21 [Example I-20] | 2.08 | 2.05 | – | – | – | –
CCSCCSc1cc(C(F)(F)F)cnc1-c1nc2cc(C(F)(F)F)ncc2n1C [Example I-23] | 4.02 | 3.96 | – | – | – | 100%
CSc1cc(Cl)ccc1-c1nc2cc(C(F)(F)F)ncc2n1C [Example I-25] | 3.08 | 2.97 | 100% | – | – | –
Cn1c(-c2ccccc2S(=O)(=O)C2COC2)nc2cc(C(F)(F)F)ncc21 [Example I-27] | 1.87 | 1.84 | – | – | – | –
Cn1c(-c2ncccc2SC(F)(F)F)nc2cc(C(F)(F)F)ncc21 [Example I-29] | 3.04 | 2.93 | 100% | – | – | –
Cn1c(-c2ccc(C(F)(F)F)cc2[S+](C)[O-])nc2cc(C(F)(F)F)ncc21 (stereo not drawn) [Example I-30] | 2.41 | 2.36 | 83% | – | – | –
CCCSc1cc(C(F)(F)F)cnc1-c1nc2cc(C(F)(F)F)ncc2n1C [Example I-31] | 3.94 | 3.86 | 100% | – | – | –
CCCS(=O)(=O)c1cc(C(F)(F)F)cnc1-c1nc2cc(C(F)(F)F)ncc2n1C [Example I-32] | 3.37 | 3.32 | – | – | – | –
CC[S+]([O-])c1cccnc1-c1nc2cc(C(F)(F)F)ncc2n1C (stereo not drawn) [Example I-33] | 2.12 | 2.11 | – | – | – | –
CSc1cc(Cl)ccc1-c1nc2cc(C(F)(F)F)ncc2o1 [Example I-34] | 4.38 | 4.41 | – | – | – | –
CCSc1ccccc1-c1nc2cc(C(F)(F)F)ncc2o1 [Example I-35, 2-[2-(Ethylsulphanyl)phenyl]-6-(trifluoromethyl)[1,3]oxazolo[5,4-c]pyridine] | 4.03 | 4.07 | – | – | 4.07 | –
Cn1c(-c2ncc(C(F)(F)F)cc2S(C)(=O)=O)nc2cc(C(F)(F)F)ncc21 [Example I-36, 3-Methyl-2-[3-(methylsulphonyl)-5-(trifluoromethyl)pyridin-2-yl]-6-(trifluoromethyl)-3H-imidazo[4,5-c]pyridine] | 2.67 | 2.64 | 100% | – | 2.64 | –
FC(F)(F)c1cc2nc(-c3ccccc3SC3COC3)oc2cn1 [Example I-40] | 3.15 | 3.10 | – | – | – | –

Structure (SMILES) | LOGP_HCOOH [1, 2] | LOGP_NEUTRAL ([1]; neutral range, 55° C.) | efficacy (Phaedon cochleariae) | chromatographic logP [1, 3] | chromatographic logP [1, 4] | efficacy (Myzus persicae)
CC(C)Sc1cc(C(F)(F)F)cnc1-c1nc2cc(C(F)(F)F)ncc2n1C [Example I-41] | 3.80 | 3.73 | 100% | – | – | –
CCSc1cc(C(F)(F)F)cnc1-c1nc2cc(Cl)ncc2n1C [Example I-55] | 3.12 | 3.01 | 100% | – | – | –
Cn1c(-c2ncc(C(F)(F)F)cc2S(=O)(=O)CCF)nc2cc(C(F)(F)F)ncc21 [Example I-57] | 2.89 | 2.82 | – | – | – | –
Cn1c(-c2ncc(C(F)(F)F)cc2S(=O)(=O)CCO)nc2cc(C(F)(F)F)ncc21 [Example I-58] | – | 2.19 | – | – | – | –
Cn1c(-c2ncc(C(F)(F)F)cc2SCCO)nc2cc(C(F)(F)F)ncc21 [Example I-59] | 2.41 | 2.31 | – | – | – | –
CCSc1cc(C(N)=O)cnc1-c1nc2cc(C(F)(F)F)ncc2n1C [Example I-60] | 1.77 | 1.76 | – | – | – | –
CCS(=O)(=O)c1c(Cl)cccc1-c1nc2cc(C(F)(F)F)ncc2n1C [Example I-62] | 2.17 | 2.15 | – | – | – | –
CCSc1cc(C(F)(F)F)cnc1-c1nc2cc(-c3ccc(C(F)(F)F)cc3)ncc2n1C [Example I-64, 2-[3-ethylsulphanyl-5-(trifluoromethyl)-2-pyridyl]-3-methyl-6-[4-(trifluoromethyl)-phenyl]imidazo[4,5-c]pyridine] | 3.93 | 3.95 | – | – | 3.95 | –
CCSc1cc(C(F)(F)F)cnc1-c1nc2cc(-n3cc(C(F)(F)F)cn3)ncc2n1C [Example I-65] | 4.37 | 4.31 | – | – | – | –
CCCSc1ccc(OC)nc1-c1nc2cc(C(F)(F)F)ncc2n1C [Example I-66] | 3.50 | 3.42 | – | – | – | –
COc1ccc(SC)c(-c2nc3cc(C(F)(F)F)ncc3n2C)n1 [Example I-67] | 2.75 | 2.70 | – | – | – | –
CCSc1cc(C(F)(F)F)cnc1-c1nc2cc(-n3ccc(C(F)(F)F)n3)ncc2n1C [Example I-69] | 4.37 | 4.32 | – | – | – | –
CCCS(=O)(=O)c1ccc(OC)nc1-c1nc2cc(C(F)(F)F)ncc2n1C [Example I-71] | 2.93 | – | – | – | – | –
CCS(=O)(=O)c1cc(C#N)cnc1-c1nc2cc(C(F)(F)F)ncc2n1C [Example I-72] | 2.32 | 2.26 | – | – | – | –
COc1ccc(S(C)(=O)=O)c(-c2nc3cc(C(F)(F)F)ncc3n2C)n1 [Example I-73] | 2.25 | 2.20 | 100% | – | – | –
CCSc1cc(C(F)(F)F)cnc1-c1nc2cc(-n3cnc(C(F)(F)F)c3)ncc2n1C [Example I-74, 2-[3-ethylsulphanyl-5-(trifluoromethyl)-2-pyridyl]-3-methyl-6-[4-(trifluoromethyl)-imidazol-1-yl]imidazo[4,5-c]pyridine] | – | 3.36 | – | 3.49 | 3.36 | –
CCS(=O)(=O)c1cc(C(F)(F)F)cnc1-c1nc2cc(-n3cnc(C(F)(F)F)c3)ncc2n1C [Example I-75] | 2.94 | 2.84 | – | – | – | –
CCS(=O)(=O)c1cc(C(F)(F)F)cnc1-c1nc2cc(-n3cc(C(F)(F)F)cn3)ncc2n1C [Example I-76] | 3.84 | 3.73 | – | – | – | –
CCS(=O)(=O)c1cc(C(F)(F)F)cnc1-c1nc2cc(-n3ccc(C(F)(F)F)n3)ncc2n1C [Example I-77] | 3.90 | 3.81 | – | – | – | –
Cn1c(-c2ncc(C(F)(F)F)cc2Cl)nc2cc(C(F)(F)F)ncc21 [IX-01, 2-[3-chloro-5-(trifluoromethyl)pyridin-2-yl]-3-methyl-6-(trifluoromethyl)-3H-imidazo[4,5-c]pyridine] | – | – | – | – | 2.96 | –
CNc1cnc(C(F)(F)F)cc1NC(=O)c1ncc(C(F)(F)F)cc1Cl [VIII-01, 3-chloro-N-[5-(methylamino)-2-(trifluoromethyl)pyridin-4-yl]-5-(trifluoromethyl)pyridine-2-carboxamide] | – | – | – | – | 3.09 | –
CCSc1ccccc1C(=O)Nc1cc(C(F)(F)F)ncc1O [VIII-02, 2-(ethylsulphanyl)-N-[5-hydroxy-2-(trifluoromethyl)pyridin-4-yl]benzamide] | – | – | – | – | 1.59 | –
